Laboratory results: patent US7892218B2, “pH reducing formulation” (Rostam Ltd., priority 2004, dated 2011)

Experiments:
[1] = Method: The same experiment was repeated by comparing the pH lowering kinetics of the same compounds, deposited onto a polymeric support in the form of weighed (240 mg), rectangular shaped pieces of non-woven (NW) tampon cloth (hereinafter referred to as “strips”) by evaporation from an acetone solution, substantially as described in WO 02/17981 and U.S. 2002/0045873 whose contents are hereby incorporated by reference in their entireties. The strips may be incorporated in a tampon. The strips were dipped in plasma at 37° C.
[2] = remark: listed apart in the source
Method: The pH lowering ability of glycolide in its crystalline form, obtained from Purac Ltd., Holland, was tested in plasma at 37° C. as a function of time, compared to that of lactide and citric acid (also in crystalline form). All three materials were taken such as to eventually yield equal molar amounts of carboxylic acid groups.

SMILES	release behaviour on strips (in words) ([1]; non-woven strips, plasma, 37° C. (FIG. 2))	degradation / acid release kinetics (in words) [2]	change in degradation rate when deposited on strips [1]	time in which degradation was completed [2]
O=C(O)CC(O)(CC(=O)O)C(=O)O [citric acid]	behaved as previously described	burst-like immediate release		
O=C1COC(=O)CO1 [glycolide]		significantly faster than that of lactide	two-fold increase	approximately 40 minutes
CC1OC(=O)C(C)OC1=O (stereo not shown) [lactide]			two-fold increase	approximately 120 minutes
